Results on ten molecules are retold here after US9511134B2, “Inducing immune responses to influenza virus using polypeptide and nucleic acid compositions” (priority 2006, dated 2016).

Like-named read-outs stand apart in the source and are kept apart here.

The subject of one experiment is CD4+ PBMC. It is filed as cell-based, human. The following applies: for Human influenza epitope-specific immune response, donor 3501: PBMC rested five days.
For a further experiment, the target named is T1, DRB1*0301 (Homo sapiens, UniProt P01903+P01911, A100K/A102G/A103R/A169T/F55Y/I96L/K41T/L162R/M171V/P40S/Q125H/Q178H/Q39Y/R42S/S66N/T106N/T262R/W38E/Y61H).
T1 construct: made in house; host or cells: EBV-transformed homozygous human B cell lines, transfected fibroblasts or single-allele 721.221 transfectants
Nature of the experiment: biochemical. It is filed as binding.

For another experiment, the target named is T2, DRB4*0101 (Homo sapiens, UniProt P01903+P13762, G164S).
T2 construct: made in house; host or cells: EBV-transformed homozygous human B cell lines, transfected fibroblasts or single-allele 721.221 transfectants
Nature of the experiment: biochemical. It is filed as binding. Conditions: IC50 nM to purified HLA DRB4*0101.

The target of a further experiment is T3, DRB1*1501 (Homo sapiens, UniProt P01903+P01911).
T3 construct: made in house; host or cells: EBV-transformed homozygous human B cell lines, transfected fibroblasts or single-allele 721.221 transfectants
Nature of the experiment: biochemical. Format: binding. Conditions: read-out: IC50 nM to purified HLA DRB1*1501.

The target of another experiment is DRB1*1302 (Homo sapiens, UniProt P01903+P01911, A100E/A169T/K41T/L162R/M171V/P40S/Q125H/Q178H/Q39Y/Q99D/R42S/S66N/T262R/V115G/W38E/Y61H). Nature of the experiment: biochemical. It is filed as binding. The following applies: read-out: IC50 nM to purified HLA DRB1*1302.
For another experiment, the target named is T4, DRB1*0401 (Homo sapiens, UniProt P01903+P01911, A100K/A169T/F76Y/I96L/K127E/L162R/M171V/N62H/P40V/Q125Y/R42H/S133A/S149N/S66Y/V115G/V209L/W38E).
T4 construct: made in house; host or cells: EBV-transformed homozygous human B cell lines, transfected fibroblasts or single-allele 721.221 transfectants
Nature of the experiment: biochemical. Format: binding. Conditions: read-out: IC50 nM to purified HLA DRB1*0401.

The next experiment concerns the target T5, DRB1*0101 (Homo sapiens, UniProt P01903+P01911, A100R/D57E/F55L/F60I/F76Y/I96L/L162R/M171V/P40L/Q125E/R42F/V115G/Y59C).
T5 construct: made in house; host or cells: EBV-transformed homozygous human B cell lines, transfected fibroblasts or single-allele 721.221 transfectants
The experiment in a line: biochemical. The following applies: IC50 nM to purified HLA DRB1*0101. It is filed as binding.

The next experiment deals with DRB1*0404 (Homo sapiens, UniProt P01903+P01911, A100R/A169T/F76Y/I96L/K127E/L162R/M171V/N62H/P40V/Q125Y/R42H/S133A/S149N/S66Y/V209L/W38E). The experiment in a line: biochemical. Conditions: IC50 nM to purified HLA DRB1*0404. Format: binding.
The mark [1] stands for this setting: IFNγ ELISPOT, five day expansion with peptide pool, CD8-depleted.

DRB1*1302, sequence (P01903 26-254 limits assumed, other chains not shown): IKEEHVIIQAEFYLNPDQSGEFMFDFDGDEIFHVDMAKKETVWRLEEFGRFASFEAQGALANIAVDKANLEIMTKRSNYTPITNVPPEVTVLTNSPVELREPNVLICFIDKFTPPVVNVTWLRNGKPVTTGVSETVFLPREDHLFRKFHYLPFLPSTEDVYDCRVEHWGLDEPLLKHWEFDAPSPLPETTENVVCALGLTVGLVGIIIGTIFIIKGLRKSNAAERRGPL
T1 sequence (P01903 26-254, other chains not shown): as the sequence (P01903 26-254 limits assumed, other chains not shown) above

With `CC[C@H](C)[C@H](NC(=O)CNC(=O)[C@@H](N)CCCCN)C(=O)N[C@@H](CC(C)C)C(=O)NCC(=O)N[C@@H](Cc1ccccc1)C(=O)N[C@H](C(=O)N[C@@H](Cc1ccccc1)C(=O)N[C@H](C(=O)N[C@@H](CC(C)C)C(=O)N[C@H](C(=O)N[C@H](C(=O)N1CCC[C@H]1C(=O)N[C@@H](CO)C(=O)N[C@@H](CCC(=O)O)C(=O)O)C(C)C)[C@@H](C)O)[C@@H](C)O)C(C)C` [Flu.M1.60], in the experiment on CD4+ PBMC, the “Human influenza epitope-specific immune response, donor 753” value is reported as “Positive (key: Positive: Donors were considered positive for a peptide if the number of spots was over 3 times background as determined by responses to irrelevant peptides (non influenza))”; the “Human influenza epitope-specific immune response, donor 6018” value is given as “Positive (key: Positive: Donors were considered positive for a peptide if the number of spots was over 3 times background as determined by responses to irrelevant peptides (non influenza))”; the “Human influenza epitope-specific immune response, donor AC02” value is listed as “Positive (key: Positive: Donors were considered positive for a peptide if the number of spots was over 3 times background as determined by responses to irrelevant peptides (non influenza))”; the “Human influenza epitope-specific immune response, donor AC08” value is on record as “Positive (key: Positive: Donors were considered positive for a peptide if the number of spots was over 3 times background as determined by responses to irrelevant peptides (non influenza))”.
On to `CSCC[C@H](NC(=O)CNC(=O)[C@H](CCSC)NC(=O)[C@@H](N)CCSC)C(=O)N[C@@H](Cc1ccccc1)C(=O)N[C@@H](CC(N)=O)C(=O)N[C@@H](CCSC)C(=O)N[C@@H](CC(C)C)C(=O)N[C@@H](CO)C(=O)N[C@H](C(=O)N[C@H](C(=O)N[C@@H](CC(C)C)C(=O)NCC(=O)N[C@H](C(=O)N[C@@H](CO)C(=O)O)C(C)C)C(C)C)[C@@H](C)O` [Flu.PB1.411], for which the “Human influenza epitope-specific immune response, donor 3501” value in the experiment with CD4+ PBMC (IFNγ ELISPOT, CD8-depleted) is “Positive (Donors were considered positive for a peptide if the number of spots was over 3 times background as determined by responses to irrelevant peptides (non influenza))”. Also, in the experiment on CD4+ PBMC (setting [1]), the “Human influenza epitope-specific immune response, donor 716” value was “Positive (Donors were considered positive for a peptide if the number of spots was over 3 times background as determined by responses to irrelevant peptides (non influenza))”; the “Human influenza epitope-specific immune response, donor 753” value is “Positive (Donors were considered positive for a peptide if the number of spots was over 3 times background as determined by responses to irrelevant peptides (non influenza))”; the “Human influenza epitope-specific immune response, donor 6018” value is “Positive (Donors were considered positive for a peptide if the number of spots was over 3 times background as determined by responses to irrelevant peptides (non influenza))”.
On to `CSCC[C@H](NC(=O)[C@H](CO)NC(=O)[C@H](Cc1ccccc1)NC(=O)[C@H](CC(N)=O)NC(=O)[C@H](C)NC(=O)[C@@H](NC(=O)[C@H](Cc1ccccc1)NC(=O)CNC(=O)[C@@H](N)Cc1ccc(O)cc1)C(C)C)C(=O)N[C@@H](CCC(=O)O)C(=O)N[C@@H](CC(C)C)C(=O)N1CCC[C@H]1C(=O)N[C@@H](CO)C(=O)N[C@@H](Cc1ccccc1)C(=O)NCC(=O)O` [Flu.PB1.502], for which the “Human influenza epitope-specific immune response, donor 3501” value in the experiment with CD4+ PBMC (IFNγ ELISPOT, CD8-depleted) is given as “Positive (Donors were considered positive for a peptide if the number of spots was over 3 times background as determined by responses to irrelevant peptides (non influenza))”.
Usually IC50 stands for the concentration that gives 50% inhibition. As for `CC[C@H](C)[C@H](NC(=O)[C@H](CS)NC(=O)[C@@H](NC(=O)[C@H](CCC(N)=O)NC(=O)[C@H](CC(=O)O)NC(=O)[C@H](CO)NC(=O)[C@H](CCCCN)NC(=O)[C@@H](NC(=O)[C@H](CC(C)C)NC(=O)[C@H](CO)NC(=O)[C@@H](N)C(C)C)C(C)C)[C@@H](C)CC)C(=O)NCC(=O)N[C@@H](Cc1ccc(O)cc1)C(=O)N[C@@H](Cc1c[nH]cn1)C(=O)N[C@@H](C)C(=O)O` [Flu.HA.11], the IC50 on DRB1*0301 was found to be 511 nM; at DRB4*0101, 32 nM; at DRB1*1501, 14500 nM.
`CC[C@H](C)[C@H](NC(=O)CNC(=O)[C@H](CCC(=O)O)NC(=O)[C@H](Cc1c[nH]cn1)NC(=O)[C@H](CC(N)=O)NC(=O)[C@@H]1CCCN1C(=O)[C@H](C)NC(=O)[C@H](CC(N)=O)NC(=O)[C@@H](NC(=O)[C@@H](NC(=O)[C@H](CC(C)C)NC(=O)[C@H](C)NC(=O)[C@H](Cc1ccccc1)NC(=O)[C@@H](N)CC(=O)O)[C@@H](C)CC)C(C)C)C(=O)N[C@@H](CCC(N)=O)C(=O)O` [Flu.PB1.449]: the “Human influenza epitope-specific immune response, donor 3501” value in the experiment with CD4+ PBMC (IFNγ ELISPOT, CD8-depleted) is given as “Positive (Donors were considered positive for a peptide if the number of spots was over 3 times background as determined by responses to irrelevant peptides (non influenza))”.
For `CC(C)C[C@H](NC(=O)CNC(=O)[C@@H](NC(=O)[C@H](C)NC(=O)[C@H](CC(C)C)NC(=O)[C@@H](NC(=O)[C@H](CC(C)C)NC(=O)[C@H](CCCNC(=N)N)NC(=O)[C@H](CC(N)=O)NC(=O)[C@H](CO)NC(=O)[C@H](CCCCN)NC(=O)[C@@H](NC(=O)[C@H](Cc1ccc(O)cc1)NC(=O)[C@H](CCCCN)NC(=O)[C@@H]1CCCN1C(=O)[C@@H](N)CS)C(C)C)C(C)C)[C@@H](C)O)C(=O)O` [Flu.HA.318], the half-maximal inhibitory concentration (IC50) against DRB1*0301 was determined as 2920 nM; at DRB1*1302, 48 nM; at DRB1*0401, 868 nM; on DRB4*0101, 287 nM; at DRB1*1501 it was 230 nM; at DRB1*0101, 2760 nM.
Consider `CC[C@H](C)[C@H](NC(=O)CNC(=O)[C@H](CO)NC(=O)[C@@H](NC(=O)CNC(=O)[C@H](Cc1ccccc1)NC(=O)[C@H](CO)NC(=O)[C@@H]1CCCN1C(=O)[C@@H](N)CC(C)C)C(C)C)C(=O)N[C@@H](CC(N)=O)C(=O)N[C@@H](CCC(=O)O)C(=O)N[C@@H](CO)C(=O)N[C@@H](C)C(=O)N[C@@H](CC(=O)O)C(=O)N[C@@H](CCSC)C(=O)O` [Flu.PB1.512], for which the figures for the IC50 at DRB1*0401, against DRB4*0101 and against DRB1*0404 were 44 nM, 48 nM and 39 nM, respectively.
In the case of `CC[C@H](C)[C@H](NC(=O)[C@H](CC(C)C)NC(=O)[C@H](CCC(=O)O)NC(=O)[C@H](CCSC)NC(=O)[C@@H](NC(=O)[C@H](CCSC)NC(=O)[C@@H](NC(=O)CNC(=O)[C@@H](N)C(C)C)[C@@H](C)O)C(C)C)C(=O)N[C@@H](CCCNC(=N)N)C(=O)N[C@@H](CCSC)C(=O)N[C@H](C(=O)N[C@@H](CCCCN)C(=O)N[C@@H](CCCNC(=N)N)C(=O)NCC(=O)O)[C@@H](C)CC` [Flu.NP.189], in the experiment with CD4+ PBMC (setting [1]), the “Human influenza epitope-specific immune response, donor 753” value is recorded as “Positive (Donors were considered positive for a peptide if the number of spots was over 3 times background as determined by responses to irrelevant peptides (non influenza))”; the “Human influenza epitope-specific immune response, donor 6018” value is “Positive (Donors were considered positive for a peptide if the number of spots was over 3 times background as determined by responses to irrelevant peptides (non influenza))”; the “Human influenza epitope-specific immune response, donor AC08” value is recorded as “Positive (Donors were considered positive for a peptide if the number of spots was over 3 times background as determined by responses to irrelevant peptides (non influenza))”.
As to `CSCC[C@H](NC(=O)[C@H](Cc1c[nH]c2ccccc12)NC(=O)[C@@H](NC(=O)[C@H](CC(C)C)NC(=O)[C@H](CCC(N)=O)NC(=O)[C@H](CO)NC(=O)[C@@H](N)CCCCN)C(C)C)C(=O)N[C@@H](C)C(=O)N[C@@H](CS)C(=O)N[C@@H](Cc1c[nH]cn1)C(=O)N[C@@H](CO)C(=O)N[C@@H](C)C(=O)N[C@@H](C)C(=O)N[C@@H](Cc1ccccc1)C(=O)N[C@@H](CCC(=O)O)C(=O)O` [Flu.NF.328], the “Human influenza epitope-specific immune response, donor 753” value in the experiment with CD4+ PBMC (setting [1]) is “Positive (Donors were considered positive for a peptide if the number of spots was over 3 times background as determined by responses to irrelevant peptides (non influenza))”.
With `CC[C@H](C)[C@H](NC(=O)[C@@H](N)CC(=O)O)C(=O)N[C@@H](CC(C)C)C(=O)N[C@@H](CCSC)C(=O)N[C@@H](CCCNC(=N)N)C(=O)N[C@@H](CCSC)C(=O)N[C@@H](CO)C(=O)N[C@@H](CCCCN)C(=O)N[C@@H](CCSC)C(=O)N[C@@H](CCC(N)=O)C(=O)N[C@@H](CC(C)C)C(=O)NCC(=O)N[C@@H](CO)C(=O)N[C@@H](CO)C(=O)N[C@@H](CO)C(=O)O` [Flu.NS2.87], the IC50 on DRB1*1302 was determined as 423 nM; at DRB1*0401, 717 nM; against DRB4*0101 it was 11 nM; on DRB1*1501 it was 748 nM; against DRB1*0101, 2140 nM.
